Assay results reported in PMC11123039, “The Helix Ring Peptide U11 from the Venom of the Ant, Tetramorium bicarinatum, Acts as a Putative Pore-Forming Toxin” (Membranes, 2024).

Columns and labels:
Shaker IR = assay: Two-electrode voltage clamp, Shaker IR; format: cell-based, Drosophila melanogaster; conditions: control toxin, 2.5 μM; Xenopus laevis oocytes, ND96, two-electrode voltage clamp
[1] = test system: vertebrate and invertebrate cells; conditions: component of Apis mellifera venom; cited from earlier work
Description: Ant venom peptides have previously been classified based on their structure into three main groups: linear, dimeric or inhibitor cystine knot (ICK)-like peptides [for a review, see [2]]. An alternative approach for classification follows their biological activity, with two main characteristics: cytolytic or neurotoxic. […] Such a phenomenon is indicative of cytolysis or cytotoxicity and may be explained by pore formation. […] In non-injected control oocytes, the current ...

[2] = test system: voltage-gated sodium (Nav) channels; conditions: vertebrates and invertebrates; blocks synaptic transmission in insect CNS; cited from earlier work
Description: Ant venom peptides have previously been classified based on their structure into three main groups: linear, dimeric or inhibitor cystine knot (ICK)-like peptides [for a review, see [2]]. An alternative approach for classification follows their biological activity, with two main characteristics: cytolytic or neurotoxic. […] They often act as amphipathic, helical structures forming pores through biological membranes, disturbing t ...

For charybdotoxin, the “block of Shaker IR currents” value (Shaker IR) was “clear block”.

In the case of melittin, the “cytolysis via pore formation” value [1] is given as “cytolysis via a process of pore formation”.

In the case of poneratoxin, the “modulation of Nav channels” value [2] is listed as “modulate voltage-gated sodium (Nav) channels of both vertebrates and invertebrates”.
